Data from patent US12545685B2 (Daiichi Sankyo Company, Limited, priority 2011, dated 2026).

Molecular target: T1, Mdm2/p53 binding (GST-Mdm2 / His-p53) (Homo sapiens, UniProt Q00987, L33E)
T1 construct: Mdm2 partial protein having Mdm2 amino acids at positions 25 to 108
Test: Mdm2/p53 binding assay (HTRF, His-p53 and GST-Mdm2)
Details: His-p53 (aa 1-132) and GST-Mdm2 (aa 25-108, L33E) 6.25 nM each; 25°C, 1 hour; values given as ranges
How it was run: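 His-p53 (aa 1–132) and GST-Mdm2 (aa 25–108, L33E) were prepared at 6.25 nM each in the protein dilution (20 mM HEPES pH 7.4, 150 mM NaCl, 0.1% BSA). Compound in 10% DMSO buffer and XL665 anti-His/Eu anti-GST antibodies (KF buffer) were added, with 1 h at 25 °C. The 665/620 nm TR-FRET ratio gave T/C and a sigmoid-fitted IC50.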

T1 sequence (Q00987 25-108 L33E): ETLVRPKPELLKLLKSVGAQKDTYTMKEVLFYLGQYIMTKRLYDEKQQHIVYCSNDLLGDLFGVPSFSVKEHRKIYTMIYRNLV

Row | SMILES | IC50
1 | COCCNC(=O)[C@@H]1CC[C@@H](NC(=O)[C@@H]2NC3(CC(CF)(CF)C3)[C@@]3(C(=O)Nc4cc(Cl)ccc43)[C@H]2c2cccc(Cl)c2F)CO1 [Example 142, (3′R, 4′S,5′R)-6″-chloro-4′-(3-chloro-2-fluorophenyl)-3,3-bis(fluoromethyl)-N-{(3R,6S)-6-[(2-methoxyethyl)carbamoyl]tetrahydro-2H-pyran-3-yl}-2″-oxo-1″,2″-dihydrodispiro[cyclobutane-1,2′-pyrrolidine-3′,3″-indole]-5′-carboxamide] | 1 to 50 nM
2 | COC[C@@H]1CC[C@@H](NC(=O)[C@@H]2NC3(CC(CF)(CF)C3)[C@@]3(C(=O)Nc4cc(Cl)ccc43)[C@H]2c2cccc(Cl)c2F)CO1 [Example 143, (3′R, 4′S,5′R)-6″-chloro-A′-(3-chloro-2-fluorophenyl)-3,3-bis(fluoromethyl)-N-[(3R,6S)-6-(methoxymethyl)tetrahydro-2H-pyran-3-yl]-2″-oxo-1″,2″-dihydrodispiro[cyclobutane-1,2′-pyrrolidine-3′,3″-indole]-5′-carboxamide] | 50 to 100 nM
3 | CN(C)C(=O)[C@H]1C[C@H](NC(=O)[C@@H]2NC3(CC(CF)(CF)C3)[C@@]3(C(=O)Nc4cc(Cl)ccc43)[C@H]2c2cccc(Cl)c2F)C1 [Example 145, (3′R, 4′S,5′R)-6″-chloro-4′-(3-chloro-2-fluorophenyl)-N-[trans-3-(dimethylcarbamoyl)cyclobutyl]-3,3-bis(fluoromethyl)-2″-oxo-1″,2″-dihydrodispiro[cyclobutane-1,2′-pyrrolidine-3′,3″-indole]-5′-carboxamide] | 50 to 100 nM
4 | CN(C)C(=O)[C@H]1CC[C@H](NC(=O)[C@@H]2NC3(CC(CF)(CF)C3)[C@@]3(C(=O)Nc4cc(Cl)ccc43)[C@H]2c2cccc(Cl)c2F)CC1 [Example 148, (3′R, 4′S,5′R)-6″-chloro-4′-(3-chloro-2-fluorophenyl)-N-[trans-4-(dimethylcarbamoyl)cyclohexyl]-3,3-bis(fluoromethyl)-2″-oxo-1″,2″-dihydrodispiro[cyclobutane-1,2′-pyrrolidine-3′,3″-indole]-5′-carboxamide] | 1 to 50 nM
5 | NC(=O)C[C@@H]1CC[C@@H](NC(=O)[C@@H]2NC3(CC(CF)(CF)C3)[C@@]3(C(=O)Nc4cc(Cl)ccc43)[C@H]2c2cccc(Cl)c2F)CO1 [Example 149, (3′R, 4′S,5′R)—N-[(3R,6S)-6-(2-amino-2-oxoethyl)tetrahydro-2H-pyran-3-yl]-6″-chloro-4′-(3-chloro-2-fluorophenyl)-3,3-bis(fluoromethyl)-2″-oxo-1″,2″-dihydrodispiro[cyclobutane-1,2′-pyrrolidine-3′,3″-indole]-5′-carboxamide] | 50 to 100 nM
6 | CNC(=O)C[C@@H]1CC[C@@H](NC(=O)[C@@H]2NC3(CCC(C)(C)CC3)[C@@]3(C(=O)Nc4cc(Cl)ccc43)[C@H]2c2ccnc(Cl)c2F)CO1 [Example 150, (3′R, 4′S,5′R)-6″-chloro-4′-(2-chloro-3-fluoropyridin-4-yl)-4,4-dimethyl-N-{(3R,6S)-6-[2-(methylamino)-2-oxoethyl]tetrahydro-2H-pyran-3-yl}-2″-oxo-1″,2″-dihydrodispiro[cyclohexane-1,2′-pyrrolidine-3′,3″-indole]-5′-carboxamide] | 1 to 50 nM
7 | CNC(=O)C[C@@H]1CC[C@@H](NC(=O)[C@@H]2NC3(CC(CF)(CF)C3)[C@@]3(C(=O)Nc4cc(Cl)ccc43)[C@H]2c2cccc(Cl)c2F)CO1 [Example 151, (3′R, 4′S,5′R)-6″-chloro-4′-(3-chloro-2-fluorophenyl)-3,3-bis(fluoromethyl)-N-{(3R,6S)-6-[2-(methylamino)-2-oxoethyl]tetrahydro-2H-pyran-3-yl}=2″-oxo-1″,2″-dihydrodispiro[cyclobutane-1,2′-pyrrolidine-3′,3′-indole]-5′-carboxamide] | 1 to 50 nM
8 | CN(C)C(=O)C[C@@H]1CC[C@@H](NC(=O)[C@@H]2NC3(CCC(C)(C)CC3)[C@@]3(C(=O)Nc4cc(Cl)ccc43)[C@H]2c2ccnc(Cl)c2F)CO1 [Example 152, (3′R, 4′S,5′R)-6″-chloro-4′-(2-chloro-3-fluoropyridin-4-yl)-N-{(3R,6S)-6-[2-(dimethylamino)-2-oxoethyl]tetrahydro-2H-pyran-3-yl}-4,4-dimethyl-2″-oxo-1″,2″-dihydrodispiro[cyclohexane-1,2′-pyrrolidine-3′,3″-indole]-5′-carboxamide] | 1 to 50 nM
9 | CN(C)C(=O)C[C@@H]1CC[C@@H](NC(=O)[C@@H]2NC3(CC(CF)(CF)C3)[C@@]3(C(=O)Nc4cc(Cl)ccc43)[C@H]2c2cccc(Cl)c2F)CO1 [Example 153, (3′R, 4′S,5′R)-6″-chloro-4′-(3-chloro-2-fluorophenyl)-N-{(3R,6S)-6-[2-(dimethylamino)-2-oxoethyl]tetrahydro-2H-pyran-3-yl}-3,3-bis(fluoromethyl)-2″-oxo-1″,2″-dihydrodispiro[cyclobutane-1,2′-pyrrolidine-3′,3′-indole]-5′-carboxamide] | 1 to 50 nM
10 | CC1(C)CCC2(CC1)N[C@@H](C(=O)N[C@H]1CC[C@H](c3nncs3)CC1)[C@H](c1ccnc(Cl)c1F)[C@]21C(=O)Nc2cc(Cl)ccc21 [Example 155, (3′R, 4′S,5′R)-6″-chloro-4′-(2-chloro-3-fluoropyridin-4-yl)-4,4-dimethyl-2″-oxo-N-[trans-4-(1,3,4-thiadiazol-2-yl)cyclohexyl]-1″,2″-dihydrodispiro[cyclohexane-1,2′-pyrrolidine-3′,3″-indole]-5′-carboxamide] | 50 to 100 nM
11 | NC(=O)[C@@H]1CC[C@@H](NC(=O)[C@@H]2NC3(CC(CF)(CF)C3)[C@@]3(C(=O)Nc4cc(Cl)ccc43)[C@H]2c2ccnc(Cl)c2F)CO1 [Example 158, (3′R, 4′S,5′R)—N-[(3R,6S)-6-carbamoyltetrahydro-2H-pyran-3-yl]-6″-chloro-4′-(2-chloro-3-fluoropyridin-4-yl)-3,3-bis(fluoromethyl)-2″-oxo-1″,2″-dihydrodispiro[cyclobutane-1,2′-pyrrolidine-3′,3″-indole]-5′-carboxamide] | 1 to 50 nM
12 | COCc1nnc([C@H]2CC[C@H](NC(=O)[C@@H]3NC4(CCC(C)(C)CC4)[C@@]4(C(=O)Nc5cc(Cl)ccc54)[C@H]3c3ccnc(Cl)c3F)CC2)o1 [Example 159] | 50 to 100 nM
13 | O=C(N[C@@H]1CC[C@@H](CO)OC1)[C@@H]1NC2(CC(CF)(CF)C2)[C@@]2(C(=O)Nc3cc(Cl)c(F)cc32)[C@H]1c1ccnc(Cl)c1F [Example 163, (3′R, 4′S,5′R)-6″-chloro-4′-(2-chloro-3-fluoropyridin-4-yl)-5″-fluoro-3,3-bis(fluoromethyl)-N-[(3R,6S)-6-(hydroxymethyl)tetrahydro-2H-pyran-3-yl]-2″-oxo-1″,2″-dihydrodispiro[cyclobutane-1,2′-pyrrolidine-3′,3″-indole]-5′-carboxamide] | 50 to 100 nM
14 | CC1(C)CCC2(CC1)N[C@@H](C(=O)N[C@@H]1CC[C@@H](CNS(C)(=O)=O)OC1)[C@H](c1ccnc(Cl)c1F)[C@]21C(=O)Nc2cc(Cl)ccc21 [Example 166, (3′R, 4′S,5′R)-6″-chloro-4′-(2-chloro-3-fluoropyridin-4-yl)-4,4-dimethyl-N-[(3R,6S)-6-{[(methylsulfonyl)amino]methyl}tetrahydro-2H-pyran-3-yl]-2″-oxo-1″,2″-dihydrodispiro[cyclohexane-1,2′-pyrrolidine-3′,3″-indole]-5′-carboxamide] | 50 to 100 nM
